{"source": "the supplement of paper PMC10307832", "test_in_all_cases": "relative viability (nuclei count vs DMSO), 5 days (fraction); higher = more cells survive", "key": {"IDH-C35 + Olaparib": {"compound": "Cc1ccccc1C(C(=O)NC1CCCCC1)N(C(=O)Cn1ccnc1C)c1cccc(F)c1 [IDH-C35] + O=C(c1cc(Cc2n[nH]c(=O)c3ccccc23)ccc1F)N1CCN(C(=O)C2CC2)CC1 [Olaparib] (partner 8 µM)", "in_short": "(§1)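 One day after seeding in 1536-well plates, lung cancer cell lines were dosed by pin tool. Dosing was either single-drug or a fixed anchor-drug dose plus five library-drug doses (not always all listed) in √10 steps. After 5 days, nuclei were stained in one fix-and-stain step and counted on 4× images, and relative viability is the nuclei count of treated wells over that of vehicle wells, given as the median of duplicate plates.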"}, "IDH-C35 + Crizotinib": {"compound": "Cc1ccccc1C(C(=O)NC1CCCCC1)N(C(=O)Cn1ccnc1C)c1cccc(F)c1 [IDH-C35] + C[C@@H](Oc1cc(-c2cnn(C3CCNCC3)c2)cnc1N)c1c(Cl)ccc(F)c1Cl [Crizotinib] (partner 1 µM)", "in_short": "as §1"}, "[1]": {"compound": "CC1=C(C(=NN1)C)CC2=C(C3=C(S2)N(C(=O)N(C3=O)C)CC(C)C)C(=O)N4C[C@@H](CO4)O + C[C@]1(O)C[C@@H](c2nc(-c3ccc4ccc(-c5ccccc5)nc4c3)c3c(N)nccn32)C1 [Linsitinib] (partner 1 µM)", "in_short": "as §1"}, "IDH-C35 + Pemetrexed": {"compound": "Cc1ccccc1C(C(=O)NC1CCCCC1)N(C(=O)Cn1ccnc1C)c1cccc(F)c1 [IDH-C35] + Nc1nc2[nH]cc(CCc3ccc(C(=O)N[C@@H](CCC(=O)O)C(=O)O)cc3)c2c(=O)[nH]1 [Pemetrexed] (partner 0.2 µM)", "in_short": "as §1"}}, "data": [{"cell line": "LXF-289", "values": [{"measurement": "relative viability", "setting": "IDH-C35 + Olaparib; first compound 0.08 µM", "value": 1.1}, {"measurement": "relative viability", "setting": "IDH-C35 + Olaparib; first compound 0.253 µM", "value": 0.996}, {"measurement": "relative viability", "setting": "IDH-C35 + Olaparib; first compound 0.8 µM", "value": 1.03}, {"measurement": "relative viability", "setting": "IDH-C35 + Olaparib; first compound 2.53 µM", "value": 1.01}, {"measurement": "relative viability", "setting": "IDH-C35 + Olaparib; first compound 8 µM", "value": 1.08}, {"measurement": "relative viability", "setting": "IDH-C35 + Crizotinib; first compound 0.08 µM", "value": 0.794}, {"measurement": "relative viability", "setting": "IDH-C35 + Crizotinib; first compound 0.253 µM", "value": 0.774}, {"measurement": "relative viability", "setting": "IDH-C35 + Crizotinib; first compound 0.8 µM", "value": 0.771}, {"measurement": "relative viability", "setting": "IDH-C35 + Crizotinib; first compound 2.53 µM", "value": 0.798}, {"measurement": "relative viability", "setting": "IDH-C35 + Crizotinib; first compound 8 µM", "value": 0.798}, {"measurement": "relative viability", "setting": "[1]; first compound 0.0025 µM", "value": 1.02}, {"measurement": "relative viability", "setting": "[1]; first compound 0.007906 µM", "value": 0.919}, {"measurement": "relative viability", "setting": "[1]; first compound 0.025 µM", "value": 0.957}, {"measurement": "relative viability", "setting": "[1]; first compound 0.07906 µM", "value": 0.953}, {"measurement": "relative viability", "setting": "[1]; first compound 0.25 µM", "value": 1.04}, {"measurement": "relative viability", "setting": "IDH-C35 + Pemetrexed; first compound 0.08 µM", "value": 1.02}, {"measurement": "relative viability", "setting": "IDH-C35 + Pemetrexed; first compound 0.253 µM", "value": 0.857}, {"measurement": "relative viability", "setting": "IDH-C35 + Pemetrexed; first compound 0.8 µM", "value": 0.859}, {"measurement": "relative viability", "setting": "IDH-C35 + Pemetrexed; first compound 2.53 µM", "value": 0.894}, {"measurement": "relative viability", "setting": "IDH-C35 + Pemetrexed; first compound 8 µM", "value": 0.797}]}, {"cell line": "PC-14", "values": [{"measurement": "relative viability", "setting": "IDH-C35 + Olaparib; first compound 0.08 µM", "value": 0.251}, {"measurement": "relative viability", "setting": "IDH-C35 + Olaparib; first compound 0.253 µM", "value": 0.271}, {"measurement": "relative viability", "setting": "IDH-C35 + Olaparib; first compound 0.8 µM", "value": 0.222}, {"measurement": "relative viability", "setting": "IDH-C35 + Olaparib; first compound 2.53 µM", "value": 0.292}, {"measurement": "relative viability", "setting": "IDH-C35 + Olaparib; first compound 8 µM", "value": 0.237}, {"measurement": "relative viability", "setting": "IDH-C35 + Crizotinib; first compound 0.08 µM", "value": 0.886}, {"measurement": "relative viability", "setting": "IDH-C35 + Crizotinib; first compound 0.253 µM", "value": 0.845}, {"measurement": "relative viability", "setting": "IDH-C35 + Crizotinib; first compound 0.8 µM", "value": 0.837}, {"measurement": "relative viability", "setting": "IDH-C35 + Crizotinib; first compound 2.53 µM", "value": 0.88}, {"measurement": "relative viability", "setting": "IDH-C35 + Crizotinib; first compound 8 µM", "value": 0.835}, {"measurement": "relative viability", "setting": "[1]; first compound 0.0025 µM", "value": 1.06}, {"measurement": "relative viability", "setting": "[1]; first compound 0.007906 µM", "value": 1.02}, {"measurement": "relative viability", "setting": "[1]; first compound 0.025 µM", "value": 0.93}, {"measurement": "relative viability", "setting": "[1]; first compound 0.07906 µM", "value": 0.936}, {"measurement": "relative viability", "setting": "[1]; first compound 0.25 µM", "value": 0.94}, {"measurement": "relative viability", "setting": "IDH-C35 + Pemetrexed; first compound 0.08 µM", "value": 0.127}, {"measurement": "relative viability", "setting": "IDH-C35 + Pemetrexed; first compound 0.253 µM", "value": 0.135}, {"measurement": "relative viability", "setting": "IDH-C35 + Pemetrexed; first compound 0.8 µM", "value": 0.152}, {"measurement": "relative viability", "setting": "IDH-C35 + Pemetrexed; first compound 2.53 µM", "value": 0.154}, {"measurement": "relative viability", "setting": "IDH-C35 + Pemetrexed; first compound 8 µM", "value": 0.133}]}, {"cell line": "NCI-H650", "values": [{"measurement": "relative viability", "setting": "IDH-C35 + Olaparib; first compound 0.08 µM", "value": 0.334}, {"measurement": "relative viability", "setting": "IDH-C35 + Olaparib; first compound 0.253 µM", "value": 0.393}, {"measurement": "relative viability", "setting": "IDH-C35 + Olaparib; first compound 0.8 µM", "value": 0.366}, {"measurement": "relative viability", "setting": "IDH-C35 + Olaparib; first compound 8 µM", "value": 0.376}, {"measurement": "relative viability", "setting": "IDH-C35 + Crizotinib; first compound 0.08 µM", "value": 0.671}, {"measurement": "relative viability", "setting": "IDH-C35 + Crizotinib; first compound 0.253 µM", "value": 0.677}, {"measurement": "relative viability", "setting": "IDH-C35 + Crizotinib; first compound 0.8 µM", "value": 0.9}, {"measurement": "relative viability", "setting": "IDH-C35 + Crizotinib; first compound 8 µM", "value": 0.689}, {"measurement": "relative viability", "setting": "[1]; first compound 0.0025 µM", "value": 1.03}, {"measurement": "relative viability", "setting": "[1]; first compound 0.007906 µM", "value": 0.973}, {"measurement": "relative viability", "setting": "[1]; first compound 0.025 µM", "value": 0.63}, {"measurement": "relative viability", "setting": "[1]; first compound 0.07906 µM", "value": 0.858}, {"measurement": "relative viability", "setting": "[1]; first compound 0.25 µM", "value": 0.791}, {"measurement": "relative viability", "setting": "IDH-C35 + Pemetrexed; first compound 0.08 µM", "value": 0.911}, {"measurement": "relative viability", "setting": "IDH-C35 + Pemetrexed; first compound 0.253 µM", "value": 0.96}, {"measurement": "relative viability", "setting": "IDH-C35 + Pemetrexed; first compound 0.8 µM", "value": 0.893}, {"measurement": "relative viability", "setting": "IDH-C35 + Pemetrexed; first compound 8 µM", "value": 0.893}]}, {"cell line": "NCI-H1666", "values": [{"measurement": "relative viability", "setting": "IDH-C35 + Olaparib; first compound 0.08 µM", "value": 0.777}, {"measurement": "relative viability", "setting": "IDH-C35 + Olaparib; first compound 0.253 µM", "value": 0.795}, {"measurement": "relative viability", "setting": "IDH-C35 + Olaparib; first compound 0.8 µM", "value": 0.721}, {"measurement": "relative viability", "setting": "IDH-C35 + Olaparib; first compound 2.53 µM", "value": 0.781}, {"measurement": "relative viability", "setting": "IDH-C35 + Olaparib; first compound 8 µM", "value": 0.718}, {"measurement": "relative viability", "setting": "IDH-C35 + Crizotinib; first compound 0.08 µM", "value": 0.995}, {"measurement": "relative viability", "setting": "IDH-C35 + Crizotinib; first compound 0.253 µM", "value": 0.942}, {"measurement": "relative viability", "setting": "IDH-C35 + Crizotinib; first compound 0.8 µM", "value": 0.968}, {"measurement": "relative viability", "setting": "IDH-C35 + Crizotinib; first compound 2.53 µM", "value": 1}, {"measurement": "relative viability", "setting": "IDH-C35 + Crizotinib; first compound 8 µM", "value": 0.967}, {"measurement": "relative viability", "setting": "[1]; first compound 0.0025 µM", "value": 0.834}, {"measurement": "relative viability", "setting": "[1]; first compound 0.007906 µM", "value": 0.839}, {"measurement": "relative viability", "setting": "[1]; first compound 0.025 µM", "value": 1.06}, {"measurement": "relative viability", "setting": "[1]; first compound 0.07906 µM", "value": 0.884}, {"measurement": "relative viability", "setting": "[1]; first compound 0.25 µM", "value": 0.847}, {"measurement": "relative viability", "setting": "IDH-C35 + Pemetrexed; first compound 0.08 µM", "value": 0.881}, {"measurement": "relative viability", "setting": "IDH-C35 + Pemetrexed; first compound 0.253 µM", "value": 0.825}, {"measurement": "relative viability", "setting": "IDH-C35 + Pemetrexed; first compound 0.8 µM", "value": 0.822}, {"measurement": "relative viability", "setting": "IDH-C35 + Pemetrexed; first compound 2.53 µM", "value": 0.874}, {"measurement": "relative viability", "setting": "IDH-C35 + Pemetrexed; first compound 8 µM", "value": 0.718}]}]}
